Patent US5498609A, “Benzoazepinyl compounds as oxytocin and vasopressin antagonists” (Otsuka Pharmaceutical Company, Limited, priority 1992, dated 1996)

Experiments:
V1 receptor = V1 receptor (Rattus norvegicus, UniProt P30560); assay: biochemical; settings: rat liver plasma membrane, [3H]-Arg-vasopressin, 37° C., 10 minutes, pH 8.0; read-out: IC50 in V1 receptor binding assay
Method: Experiment 1: V1 receptor binding assay
Using rat liver plasma membrane preparations prepared according to Ichihara's method [cf: Akira Ichihara, J. Bio. Chem., 258, 9283 (1983)], the plasma membrane (50000 dpm, 2×10^-10 M) of [^3 H]-Arg-vasopressin and a test compound (60 μg, 10^-8 to 10^-4 M) are incubated at 37° C. for 10 minutes in 100 mM Tris-HCl buffer (pH: 8.0) (250 μl) containing 5 mM MgCl2, 1 mM EDTA and 0.1% BSA. After incubation, the mixture is filtered three times using the glass filter (GF/F) so as to separate the membrane preparation binding with vasopressin and then washed with the buffer (5 ml). This glass filter is taken out and mixed with liquid scintillation cocktail. The amount of [^3 H]-vasopressin binding with the membrane is measured by liquid scintillation counter and the rate of the inhibitory effect of the test compound is estimated according to the following equation. [formula] C1 : The amount of [^3 H]-vasopressin binding with the membrane in the presence of the test compound (known amount)
(§1) C0 : The amount of [^3 H]-vasopressin binding with the membrane in the absence of the test compound
(§2) B1 : The amount of [^3 H]-vasopressin binding with the membrane in the presence of the excess amount of vasopressin (10^-6 M)
(§3) The results are expressed as IC50 value, which is the concentration of the test compound required to achieve the inhibitory effect in the rate of 50%.

V2 receptor = biological target: T1, V2 receptor (Rattus norvegicus, UniProt Q00788); assay: biochemical; settings: rat kidney plasma membrane, [3H]-Arg-vasopressin, 4° C., pH 8.0, read-out: IC50 in V2 receptor binding assay
T1 construct: Using rat kidney plasma membrane preparations; from tissue; host or cells: rat kidney plasma membrane
T1 sequence (Q00788 whole entry): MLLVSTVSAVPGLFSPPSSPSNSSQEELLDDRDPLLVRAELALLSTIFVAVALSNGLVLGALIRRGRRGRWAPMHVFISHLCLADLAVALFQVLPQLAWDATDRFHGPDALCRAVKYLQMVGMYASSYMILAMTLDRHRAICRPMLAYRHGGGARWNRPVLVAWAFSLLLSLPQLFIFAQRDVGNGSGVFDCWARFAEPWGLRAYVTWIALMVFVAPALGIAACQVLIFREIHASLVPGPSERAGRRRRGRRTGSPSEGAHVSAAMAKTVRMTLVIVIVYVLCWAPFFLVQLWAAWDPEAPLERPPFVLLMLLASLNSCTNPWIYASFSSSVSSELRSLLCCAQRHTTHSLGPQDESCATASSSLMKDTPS
Method: Experiment 2: V2 receptor binding assay
Using rat kidney plasma membrane preparations prepared according to O. Hechter's method [cf: J. Bio. Chem., 253, 3211 (1978)], the plasma membrane (100000 dpm, 4×10^-10 M) of [^3 H]-Arg-vasopressin and a test compound (0.6 mg, 10^-10 to 10^-5 M) are incubated at 4° C. for 3 hours in 100 mM Tris-HCl buffer (pH: 8.0) (250 μl) containing 5 mM MgCl2, 1 mM EDTA and 0.1% BSA. After incubation, the mixture is filtered using the glass filter (GF/F) so as to separate the membrane preparation binding with vasopressin and then washed twice with the buffer (each 5 ml). This glass filter is taken out and mixed with liquid scintillation cocktail. The amount of [^3 H]-vasopressin binding with the membrane is measured by liquid scintillation counter and the rate of the inhibitory effect of the test compound is estimated according to the following equation. [formula] C1 : The amount of [^3 H]-vasopressin binding with the membrane in the presence of the test compound (known amount)
as §1, §2, §3

Oxytocin receptor = biological target: T2, Oxytocin receptor (Rattus norvegicus, UniProt P70536); assay: Oxytocin receptor binding assay ([3H]-oxytocin, rat uterine muscle membrane); settings: for inhibition at 10 µM: 10^-5 M test compound, read-out: Inhibitory Rate (%) at 10^-5 M (oxytocin receptor binding assay); for IC50: 25° C., one hour, pH 8.0
T2 construct: from tissue; host or cells: rat uterine muscle membrane (diethylstilbestrol-treated)
T2 sequence (P70536 1-388): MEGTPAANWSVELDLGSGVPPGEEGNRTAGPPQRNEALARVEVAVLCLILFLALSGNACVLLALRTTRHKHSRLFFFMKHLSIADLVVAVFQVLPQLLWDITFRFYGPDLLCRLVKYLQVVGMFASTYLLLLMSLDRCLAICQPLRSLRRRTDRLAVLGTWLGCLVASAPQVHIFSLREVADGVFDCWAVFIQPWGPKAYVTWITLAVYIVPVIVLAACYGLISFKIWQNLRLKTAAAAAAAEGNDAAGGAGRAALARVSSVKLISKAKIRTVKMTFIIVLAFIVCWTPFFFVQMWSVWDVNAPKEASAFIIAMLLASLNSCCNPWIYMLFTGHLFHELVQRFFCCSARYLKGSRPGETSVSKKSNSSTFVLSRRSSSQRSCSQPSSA
Method: Experiment 3: Oxytocin receptor binding assay
According to the method of W. Y. Chan et al. [Endocrinology, 126, 2095-2101 (1990)], uterine muscle is taken out from a rat which has previously been injected subcutaneously with diethylstilbestrol the day before, and homogenized, which is used as a membrane preparation. The membrane preparation (0.2 mg), [^3 H]-oxytocin (100000 dpm, 10^-9 M), a test compound (10^-9 -10^-5 M) are incubated at 25° C. for one hour in 100 mM Tris-HCl buffer (pH 8.0, 250 μl) containing a 5 mM MgCl2, 1 mM MEDTA and 0.1% BSA. The mixture is filtered through the glass filter (GF/B) so as to separate the membrane preparation binding with [^3 H]-oxytocin, and then, washed twice with the buffer (5 ml). This glass filter is put into a vial and mixed with Aquasole (liquid scintillation cocktail). The amount of [^3 H]-oxytocin binding with the membrane is measured by liquid scintillation counter. The rate of the inhibitory effect of the test compound is estimated according to the following equation.
Inhibitory Rate (%)=100-[(C1 -B)/(C0 -B)]×100
C1 : The amount of [^3 H]-oxytocin binding with the membrane in the presence of a test compound (known amount)
C0 : The amount of [^3 H]-oxytocin binding with the membrane in the absence of a test compound
B: The amount of [^3 H]-oxytocin binding with the membrane in the presence of the excess amount of oxytocin (5×10^-6 M).
The results are expressed as IC50 value, which is the concentration of the test compound required to achieve the inhibitory rate in the rate of 50%.

Chain of V1 receptor (P30560 whole entry): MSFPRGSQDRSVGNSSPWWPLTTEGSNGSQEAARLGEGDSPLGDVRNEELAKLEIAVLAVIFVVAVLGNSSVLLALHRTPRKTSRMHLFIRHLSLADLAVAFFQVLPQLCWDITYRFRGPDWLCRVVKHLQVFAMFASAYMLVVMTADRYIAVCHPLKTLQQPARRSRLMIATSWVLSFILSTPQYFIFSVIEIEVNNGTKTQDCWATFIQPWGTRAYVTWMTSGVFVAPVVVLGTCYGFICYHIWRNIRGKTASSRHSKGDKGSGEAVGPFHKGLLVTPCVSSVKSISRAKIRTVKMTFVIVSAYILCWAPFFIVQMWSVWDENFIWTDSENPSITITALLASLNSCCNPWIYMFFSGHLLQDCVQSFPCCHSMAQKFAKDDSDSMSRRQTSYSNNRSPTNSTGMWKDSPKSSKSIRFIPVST

| IC50 (V1 receptor) [nM] | IC50 (V2 receptor) [nM] | inhibition at 10 µM (Oxytocin receptor) [%] | IC50 (Oxytocin receptor) [nM] | Structure (SMILES) |
| --- | --- | --- | --- | --- |
| 60 | 380 | 38 |  | CC(=O)NC1CCN(CCOc2ccccc2C(=O)Nc2ccc(C(=O)N3CCCCc4cc(Cl)ccc43)cn2)CC1 [Compound of Ex. 92] |
|  |  |  | 360 | O=C(Nc1ccc(C(=O)N2CCCCc3cc(Cl)ccc32)cn1)C1CCCCC1 [Compound of Ex. 46] |
| 51 | 22 |  | 1600 | Cc1ccccc1C(=O)Nc1ccc(C(=O)N2CCCN(C)c3cc(Cl)ccc32)cn1 [Compound of Ex. 52] |
| 5 | 160 |  | 1800 | NC(=O)COc1ccccc1C(=O)Nc1ccc(C(=O)N2CCCCc3cc(Cl)ccc32)cn1 [Compound of Ex. 97] |
|  |  |  | 1800 | Cc1ccccc1C(=O)Nc1ccc(C(=O)N2CCCC(NC3CC3)c3cc(Cl)ccc32)cn1 (stereo not shown) [Compound of Ex. 77] |
| 13 | 10 |  | 290 | Cc1ccccc1C(=O)Nc1ccc(C(=O)N2CCCCc3cc(Cl)ccc32)cn1 [Compound of Ex. 43] |
|  |  |  | 1000 | CNC1CCCN(C(=O)c2ccc(NC(=O)c3ccccc3Cl)nc2)c2ccc(Cl)cc21 (stereo not shown) [Compound of Ex. 80] |
| 29 | 5.9 |  | 680 | O=C(Nc1ccc(C(=O)N2CCCC(CCN3CCOCC3)c3cc(Cl)ccc32)cn1)c1ccccc1Cl (stereo not shown) [Compound of Ex. 127] |
|  |  |  | 1200 | O=C(Nc1ccc(C(=O)N2CCCC(O)(CO)c3cc(Cl)ccc32)cn1)c1ccccc1Cl (stereo not shown) [Compound of Ex. 145] |
| 38 | 24 |  | 510 | Cc1ccccc1C(=O)Nc1ccc(C(=O)N2CCCC(CC(=O)N3CCCCC3)c3cc(Cl)ccc32)cn1 (stereo not shown) [Compound of Ex. 104] |
|  |  | 17 |  | O=C(O)CCCOc1ccccc1C(=O)Nc1ccc(C(=O)N2CCCCc3cc(Cl)ccc32)cn1 [Compound of Ex. 86] |
|  |  |  | 440 | COC1CCCN(C(=O)c2ccc(NC(=O)c3ccccc3Cl)nc2)c2ccc(Cl)cc21 (stereo not shown) [Compound of Ex. 72] |
| 910 | 68 |  |  | Cc1ccccc1C(=O)Nc1ccc(C(=O)N2CCCC(CC(=O)O)c3cc(Cl)ccc32)cn1 (stereo not shown) [Compound of Ex. 39] |
| 7 | 3 |  |  | Cc1ccccc1CC(=O)Nc1ccc(C(=O)N2CCCC(O)c3cc(Cl)ccc32)cn1 (stereo not shown) [Compound of Ex. 33] |
|  |  |  | 9700 | CCOC(=O)COc1ccccc1C(=O)Nc1ccc(C(=O)N2CCCCc3cc(Cl)ccc32)cn1 [Compound of Ex. 82] |
| 57 | 120 |  |  | O=C(Nc1ccc(C(=O)N2CCCC(O)c3cc(Cl)ccc32)cn1)c1cccs1 (stereo not shown) [Compound of Ex. 31] |
|  |  | 38 |  | CC(C)NCCOc1ccccc1C(=O)Nc1ccc(C(=O)N2CCCCc3cc(Cl)ccc32)cn1 [Compound of Ex. 91] |
|  |  |  | 350 | CCN(CC)CCN(C)C(=O)CC1CCCN(C(=O)c2ccc(NC(=O)c3ccccc3Br)nc2)c2ccc(Cl)cc21 (stereo not shown) [Compound of Ex. 120] |

| IC50 (V1 receptor) [nM] | IC50 (V2 receptor) [nM] | inhibition at 10 µM (Oxytocin receptor) [%] | IC50 (Oxytocin receptor) [nM] | Structure (SMILES) |
| --- | --- | --- | --- | --- |
| 150 | 89 |  |  | Cc1ccccc1C(=O)Nc1ccc(C(=O)N2CCN(C)Cc3cc(Cl)ccc32)cn1 [Compound of Ex. 47] |
|  |  |  | 410 | CN1CCN(C(=O)CC2CCCN(C(=O)c3ccc(NC(=O)c4ccccc4Cl)nc3)c3ccc(Cl)cc32)CC1 (stereo not shown) [Compound of Ex. 107] |
| 43 | 3 |  |  | Cc1ccccc1C(=O)Nc1ccc(C(=O)N2CCCC(OCCO)c3cc(Cl)ccc32)cn1 (stereo not shown) [Compound of Ex. 36, 7-chloro-5-(2-hydroxyethoxy)-1-[6-(2-methylbenzoylamino)nicotinoyl]-2,3,4,5-tetrahydro-1H-benzazepine] |
| 24 | 5.3 |  |  | CN(C)C(=O)COC1CCCN(C(=O)c2ccc(NC(=O)c3ccccc3Cl)nc2)c2ccc(Cl)cc21 (stereo not shown) [Compound of Ex. 173] |
|  |  |  | 7300 | CN1CCN(C(=O)CCCOc2ccccc2C(=O)Nc2ccc(C(=O)N3CCCCc4cc(Cl)ccc43)cn2)CC1 [Compound of Ex. 89] |
| 66 | 16 |  |  | Cc1ccccc1C(=O)Nc1ccc(C(=O)N2CCCC(O)(CO)c3cc(Cl)ccc32)cn1 (stereo not shown) [Compound of Ex. 34] |
| 78 | 21 |  |  | Cc1cccc(C(=O)Nc2ccc(C(=O)N3CCCC(O)c4cc(Cl)ccc43)cn2)c1 (stereo not shown) [Compound of Ex. 26] |
| 34 | 12 |  |  | Cc1ccccc1C(=O)Nc1ccc(C(=O)N2CCCC(OC(=O)CN(C)C)c3cc(Cl)ccc32)cn1 (stereo not shown) [Compound of Ex. 189] |
| 22 | 4 |  |  | Cc1ccccc1C(=O)Nc1ccc(C(=O)N2CCCC(CC(=O)N(C)C)c3cc(Cl)ccc32)cn1 (stereo not shown) [Compound of Ex. 41] |
| 55 | 19 |  |  | CN1CCCN(C(=O)c2ccc(NC(=O)c3ccccc3Cl)nc2)c2ccc(Cl)cc21 [Compound of Ex. 53] |
| 7.1 | 3.1 |  |  | NC(=O)COC1CCCN(C(=O)c2ccc(NC(=O)c3ccccc3Cl)nc2)c2ccc(Cl)cc21 (stereo not shown) [Compound of Ex. 171] |
| 27 | 17 |  |  | Cc1ccccc1C(=O)Nc1ccc(C(=O)N2CCC(O)Cc3cc(Cl)ccc32)cn1 (stereo not shown) [Compound of Ex. 148] |
| 12 | 16 |  |  | O=C(Nc1ccc(C(=O)N2CCCC(O)c3cc(Cl)ccc32)cn1)C1CCCCC1 (stereo not shown) [Compound of Ex. 32] |
| 9 | 3 |  |  | CCN(CC)CCN(C)C(=O)CC1CCCN(C(=O)c2ccc(NC(=O)c3ccccc3C)nc2)c2ccc(Cl)cc21 (stereo not shown) [Compound of Ex. 105] |
| 14 | 4 |  |  | Cc1ccccc1C(=O)Nc1ccc(C(=O)N2CCCC(O)c3cc(Cl)ccc32)cn1 (stereo not shown) [Compound of Ex. 25] |
| 20 | 7 |  |  | Cc1ccccc1C(=O)Nc1ccc(C(=O)N2CCCC(OCC(=O)N3CCN(C)CC3)c3cc(Cl)ccc32)cn1 (stereo not shown) [Compound of Ex. 35] |
| 29 | 8 |  |  | Cc1ccccc1C(=O)Nc1ccc(C(=O)N2CCCC(OCCn3ccnc3)c3cc(Cl)ccc32)cn1 (stereo not shown) [Compound of Ex. 178] |
| 12 | 3.1 |  |  | O=C(Nc1ccc(C(=O)N2CCCC(CC(=O)N3CCNCC3)c3cc(Cl)ccc32)cn1)c1ccccc1Cl (stereo not shown) [Compound of Ex. 116, 7-chloro-5-(1-piperazinyl)carboxymethyl-1-[6-(2-chlorobenzoylamino)nicotinoyl]-2,3,4,5-tetrahydro-1H-benzazepine] |
